From patent US9242984B2, “Pyrazolyl derivatives as Syk inhibitors” (Merck Sharp & Dohme Corp., priority 2012, dated 2016) come the findings set out here.

In this assay the target is T1, recombinant human Syk (GST-hSyk fusion protein) (Homo sapiens, UniProt P43405).
T1 construct: purchased Carna Biosciences 08-176
Briefly: Homogeneous Time-Resolved Fluorescence (HTRF) assay for the recombinant human Syk enzyme. The class given is biochemical. Particulars: IC50 class; 10-dose titration, 25 μM ATP; read-out: rhSYK Activity. The method in brief:
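GST-hSyk (5 pM) preincubated 10 min with compound (0.1% DMSO) in 15 mM Tris-HCl pH 7.5, 2 mM DTT; reaction started with 250 nM biotinylated peptide, 5 mM Mg, 25 μM ATP, 45 min, room temperature. EDTA quench, Eu-anti-phosphotyrosine/SA-APC HTRF read after 30 min; IC50 from 10-dose titration (10 μM–0.508 nM), four-parameter fit.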
For orientation: TR-FRET usually uses a lanthanide donor and a delayed reading to cut background.

The structures appear in SMILES notation.

For the compound `CC(O)c1ccnc(Nc2cccc(-c3cnn(C[C@](C)(O)CO)c3)c2)n1` (stereo partly drawn) [Example 2.93, (2S)-3-[4-(3-{[4-(1-hydroxyethyl)pyrimidin-2-yl]amino}phenyl)-1H-pyrazol-1-yl]-2-methylpropane-1,2-diol], the IC50 is at most 100 nM.
Next, `Cc1cc(Nc2ncc(F)c(C)n2)cc(-c2cnn(C[C@](C)(O)CO)c2)c1` [Example 2.94, (2S)-3-(4-{3-[(5-fluoro-4-methylpyrimidin-2-yl)amino]-5-methylphenyl}-1H-pyrazol-1-yl)-2-methylpropane-1,2-diol]: at most 100 nM.
The result for `Cc1ccnc(Nc2cccc(-c3cnn(C[C@](C)(O)CO)c3)c2)n1` [Example 2.95, (2S)-2-methyl-3-(4-{3-[(4-methylpyrimidin-2-yl)amino]phenyl}-1H-pyrazol-1-yl)propane-1,2-diol] reads 100 to 1000 nM; that for `Cc1cc(Nc2nccc(OC(C)C)n2)cc(-c2cnn(C[C@](C)(O)CO)c2)c1` [Example 2.96, (2S)-2-methyl-3-[4-(3-methyl-5-{[4-(1-methylethoxy)pyrimidin-2-yl]amino}phenyl)-1H-pyrazol-1-yl]propane-1,2-diol], at most 100 nM.
In the case of `Cc1cc(Nc2ncc(Cl)c(C)n2)cc(-c2cnn(C[C@](C)(O)CO)c2)c1` [Example 2.97, (2S)-3-(4-{3-[(5-chloro-4-methylpyrimidin-2-yl)amino]-5-methylphenyl}-1H-pyrazol-1-yl)-2-methylpropane-1,2-diol], the IC50 is at most 100 nM.
For the compound `COc1nc(Nc2cc(C)cc(-c3cnn(C[C@](C)(O)CO)c3)c2)ncc1Cl` [Example 2.98, (2S)-3-(4-{3-[(5-chloro-4-methoxypyrimidin-2-yl)amino]-5-methylphenyl}-1H-pyrazol-1-yl)-2-methylpropane-1,2-diol], the IC50 was at most 100 nM.
As to `Cc1cc(Nc2nccc(C(F)(F)F)n2)cc(-c2cnn(C[C@H](O)CC#N)c2)c1` [Example 3.2, (3R)-3-hydroxy-4-[4-(3-methyl-5-{[4-(trifluoromethyl)-pyrimidin-2-yl]amino}phenyl)-1H-pyrazol-1-yl]-butanenitrile], the IC50 is at most 100 nM.
The result for `Cc1cc(Nc2nccc(C(F)(F)F)n2)cc(-c2cnn(CCC(N)=O)c2)c1` [Example 3.3] reads at most 100 nM; that for `Cc1cc(Nc2nccc(C(F)(F)F)n2)cc(-c2cnn(C[C@@H](C)CO)c2)c1` [Example 3.4, (2r)-2-methyl-3-[4-(3-methyl-5-{[4-(trifluoromethyl)-pyrimidin-2-yl]-amino}phenyl)-1H-pyrazol-1-yl]-propan-1-ol], at most 100 nM; that for `Cc1cc(Nc2nccc(C(F)(F)F)n2)cc(-c2cnn(C[C@H](C)CO)c2)c1` [Example 3.5, (2s)-2-methyl-3-[4-(3-methyl-5-{[4-(trifluoromethyl)-pyrimidin-2-yl]amino}-phenyl)-1H-pyrazol-1-yl]-propan-1-ol], at most 100 nM.
Next, `Cc1cc(Nc2nccc(C(F)(F)F)n2)cc(-c2cnn(CCCN3CCNC3=O)c2)c1` [Example 3.6, 1-{3-[4-(3-methyl-5-{[4-(trifluoro-methyl)pyrimidin-2-yl]amino}-phenyl)-1H-pyrazol-1-yl]-propyl}imidazolidin-2-one]: at most 100 nM; `CC(=O)N1CCN(C(=O)Cn2cc(-c3cc(C)cc(Nc4nccc(C(F)(F)F)n4)c3)cn2)CC1` [Example 3.7, N-(3-{1-[2-(4-acetylpiperazin-1-yl)-2-oxoethyl]-1H-pyrazol-4-yl}-5-methylphenyl)-4-(trifluoromethyl)-pyrimidin-2-amine]: at most 100 nM.
Turning to `Cc1cc(Nc2nccc(C(F)(F)F)n2)cc(-c2cnn(CC(=O)NC(C)(C)C)c2)c1` [Example 3.8, N-tert-butyl-2-[4-(3-methyl-5-{[4-(trifluoromethyl)pyrimidin-2-yl]amino}-phenyl)-1H-pyrazol-1-yl]acetamide], the IC50 was at most 100 nM.
The result for `Cc1cc(Nc2nccc(C(F)(F)F)n2)cc(-c2cnn(CC3COCCO3)c2)c1` (stereo not drawn) [Example 3.9, N-{3-[1-(1,4-dioxan-2-ylmethyl)-1H-pyrazol-4-yl]-5-methyl-phenyl}-4-(trifluoro-methyl)pyrimidin-2-amine] reads at most 100 nM; that for `Cc1cc(Nc2nccc(C(F)(F)F)n2)cc(-c2cnn(Cc3noc(C)n3)c2)c1` [Example 3.10, N-(3-methyl-5-{1-[(5-methyl-1,2,4-oxadiazol-3-yl)methyl]-1H-pyrazol-4-yl}phenyl)-4-(trifluoromethyl)-pyrimidin-2-amine], at most 100 nM.
Regarding `Cc1cc(Nc2nccc(C(F)(F)F)n2)cc(-c2cnn(CC(=O)N3COCC3(C)C)c2)c1` [Example 3.11, N-(3-{1-[2-(4,4-dimethyl-1,3-oxazolidin-3-yl)-2-oxoethyl]-1H-pyrazol-4-yl}-5-methylphenyl)-4-(trifluoromethyl)pyrimidin-2-amine], the IC50 is at most 100 nM.
The result for `COCC(C)(C)NC(=O)Cn1cc(-c2cc(C)cc(Nc3nccc(C(F)(F)F)n3)c2)cn1` [Example 3.12, N-(2-methoxy-1,1-dimethylethyl)-2-[4-(3-methyl-5-{[4-(trifluoromethyl)pyrimidin-2-yl]amino}phenyl)-1H-pyrazol-1-yl]acetamide] reads 100 to 1000 nM; that for `Cc1cc(Nc2nccc(C(F)(F)F)n2)cc(-c2cnn(CC(=O)N3CCOCC3(C)C)c2)c1` [Example 3.13, N-(3-{1-[2-(3,3-dimethylmorpholin-4-yl)-2-oxoethyl]-1H-pyrazol-4-yl}-5-methylphenyl)-4-(trifluoromethyl)pyrimidin-2-amine], 100 to 1000 nM.
The result for `Cc1cc(Nc2nccc(C(F)(F)F)n2)cc(-c2cnn(CC(=O)N3[C@H](C)COC[C@@H]3C)c2)c1` [Example 3.14, N-[3-(1-{2-[(3r,5s)-3,5-dimethyl-morpholin-4-yl]-2-oxoethyl}-1H-pyrazol-4-yl)-5-methylphenyl]-4-(trifluoromethyl)-pyrimidin-2-amine] reads 100 to 1000 nM; that for `Cc1cc(Nc2nccc(C(F)(F)F)n2)cc(-c2cnn(CC(=O)N3[C@H](C)COC[C@H]3C)c2)c1` [Example 3.15, N-[3-(1-{2-[(3r,5r)-3,5-dimethylmorpholin-4-yl]-2-oxoethyl}-1H-pyrazol-4-yl)-5-methylphenyl]-4-(trifluoromethyl)-pyrimidin-2-amine], at most 100 nM; that for `Cc1cc(Nc2nccc(C(F)(F)F)n2)cc(-c2cnn(CCNC(N)=O)c2)c1` [Example 3.16, 1-{2-[4-(3-methyl-5-{[4-(trifluoromethyl)-pyrimidin-2-yl]-amino}phenyl)-1H-pyrazol-1-yl]ethyl}urea], at most 100 nM.
Consider `Cc1cc(Nc2nccc(C(F)(F)F)n2)cc(-c2cnn(C3CCOC3=O)c2)c1` (stereo not drawn) [Example 3.17, 3-[4-(3-methyl-5-{[4-(trifluoromethyl)pyrimidin-2-yl]amino}-phenyl)-1H-pyrazol-1-yl]dihydrofuran-2(3h)-one], for which the IC50 is at most 100 nM.
Next, `Cc1cc(Nc2nccc(C(F)(F)F)n2)cc(-c2cnn(CC3CCO3)c2)c1` (stereo not drawn) [Example 3.18, N-{3-methyl-5-[1-(oxetan-2-ylmethyl)-1H-pyrazol-4-yl]-phenyl}-4-(trifluoro-methyl)-pyrimidin-2-amine]: at most 100 nM; `Cc1cc(Nc2nccc(C(F)(F)F)n2)cc(-c2cnn(CCOCCO)c2)c1` [Example 3.19]: at most 100 nM.
The result for `Cc1cc(Nc2nccc(C(F)(F)F)n2)cc(-c2cnn(CCCN)c2)c1` [Example 3.20, N-{3-[1-(3-aminopropyl)-1H-pyrazol-4-yl]-5-methylphenyl}-4-(trifluoromethyl)pyrimidin-2-amine] reads at most 100 nM; that for `Cc1cc(Nc2nccc(C(F)(F)F)n2)cc(-c2cnn(CC3CC3)c2)c1` [Example 3.21, N-{3-[1-(cyclopropylmethyl)-1H-pyrazol-4-yl]-5-methylphenyl}-4-(trifluoromethyl)pyrimidin-2-amine], at most 100 nM.
Turning to `CC(=O)Cn1cc(-c2cc(C)cc(Nc3nccc(C(F)(F)F)n3)c2)cn1` [Example 3.22, 1-[4-(3-methyl-5-{[4-(trifluoromethyl)pyrimidin-2-yl]amino}phenyl)-1H-pyrazol-1-yl]propan-2-one], the IC50 was at most 100 nM.
For the compound `CCOC(Cn1cc(-c2cc(C)cc(Nc3nccc(C(F)(F)F)n3)c2)cn1)OCC` [Example 3.23, N-{3-[1-(2,2-diethoxyethyl)-1H-pyrazol-4-yl]-5-methylphenyl}-4-(trifluoromethyl)pyrimidin-2-amine], the IC50 lay in the range of 100 to 1000 nM.
The result for `Cc1cc(Nc2nccc(C(F)(F)F)n2)cc(-c2cnn(Cc3nnc(C)o3)c2)c1` [Example 3.24, N-(3-methyl-5-{1-[(5-methyl-1,3,4-oxadiazol-2-yl)methyl]-1H-pyrazol-4-yl}phenyl)-4-(trifluoromethyl)pyrimidin-2-amine] reads at most 100 nM; that for `Cc1cc(Nc2nccc(C(F)(F)F)n2)cc(-c2cnn(Cc3cc(C)no3)c2)c1` [Example 3.25, N-(3-methyl-5-{1-[(3-methylisoxazol-5-yl)methyl]-1H-pyrazol-4-yl}phenyl)-4-(trifluoromethyl)-pyrimidin-2-amine], at most 100 nM.
Next, `Cc1cc(Nc2nccc(C(F)(F)F)n2)cc(-c2cnn(CC(=O)N3CCC3)c2)c1` [Example 3.26, N-{3-[1-(2-azetidin-1-yl-2-oxoethyl)-1H-pyrazol-4-yl]-5-methylphenyl}-4-(trifluoromethyl)pyrimidin-2-amine]: at most 100 nM.
For the compound `Cc1cc(Nc2nccc(C(F)(F)F)n2)cc(-c2cnn(CC(=O)N3CCCC3)c2)c1` [Example 3.27, N-{3-methyl-5-[1-(2-oxo-2-pyrrolidin-1-ylethyl)-1H-pyrazol-4-yl]phenyl}-4-(trifluoromethyl)pyrimidin-2-amine], the IC50 was at most 100 nM.
On to `CCC(C(=O)OC)n1cc(-c2cc(C)cc(Nc3nccc(C(F)(F)F)n3)c2)cn1` (stereo not drawn) [Example 3.28, methyl 2-[4-(3-methyl-5-{[4-(trifluoromethyl)pyrimidin-2-yl]amino}-phenyl)-1H-pyrazol-1-yl]butanoate], for which the IC50 is at most 100 nM.
